Experimental data as given in PubChem BioAssay AID276 (DTP/NCI, 2004).
Values joined by “and” are separate entries in the source; they are usually repeats but may differ in a detail not shown here. Identical values can stand only once. Toxic doses and inconclusive results are not listed. Rule for the calls: active = survival T/C of 150% or more; inactive = T/C below 125% in these data.

Test system: B6C3F1 mice, Lewis lung carcinoma iv, survival T/C
Assay: NCI In Vivo Anticancer Drug Screen. Data for tumor model Lewis Lung Carcinoma (intravenous) in B6C3F1 mice
Conditions: endpoint: median survival time, schedule: Q01DX009 (ip), higher = longer survival
In short: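 Transplantable tumor in mice; compound treated vs vehicle controls; read-out survival; value = treated/control (T/C).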

[1] = dose: 50.0 mg/kg/injection, vehicle: DMSO
[2] = dose: 1.56 mg/kg/injection, vehicle: saline
[3] = dose: 3.12 mg/kg/injection, vehicle: saline
[4] = dose: 6.25 mg/kg/injection, vehicle: saline
[5] = dose: 25.0 mg/kg/injection, vehicle: saline
[6] = dose: 50.0 mg/kg/injection, vehicle: saline with Tween-80
[7] = dose: 100.0 mg/kg/injection, vehicle: saline with Tween-80
[8] = dose: 200.0 mg/kg/injection, vehicle: saline with Tween-80
[9] = dose: 400.0 mg/kg/injection, vehicle: saline with Tween-80

Measured: T/C

CCOc1cc2c(cc1C(C)c1ccc(OC)cc1)OCO2 (stereo not given)
inactive: dose: 12.5 mg/kg/injection, vehicle: distilled water + Tween-80 + alcohol 104 % of control | dose: 12.5 mg/kg/injection, vehicle: distilled water + alcohol 106 % of control | dose: 25.0 mg/kg/injection, vehicle: distilled water + Tween-80 + alcohol 103 % of control | dose: 25.0 mg/kg/injection, vehicle: distilled water + alcohol 104 % of control | [1] 102 % of control | dose: 50.0 mg/kg/injection, vehicle: distilled water + Tween-80 + alcohol 103 % of control | dose: 50.0 mg/kg/injection, vehicle: distilled water + alcohol 112 % of control | dose: 100.0 mg/kg/injection, vehicle: distilled water + alcohol 108 % of control | dose: 200.0 mg/kg/injection, vehicle: distilled water + alcohol 110 % of control

NC(=O)CCC(N)C(=O)O (stereo not given)
inactive: dose: 25.0 mg/kg/injection, vehicle: suspension in saline 109 % of control | dose: 50.0 mg/kg/injection, vehicle: suspension in saline 111 % of control | dose: 100.0 mg/kg/injection, vehicle: suspension in saline 107 % of control | dose: 200.0 mg/kg/injection, vehicle: suspension in saline 102 % of control | dose: 400.0 mg/kg/injection, vehicle: suspension in saline 94 % of control

CCCCNc1ccc2nnc(C)n2n1
inactive: [1] 100 % of control | dose: 100.0 mg/kg/injection, vehicle: DMSO 100 % of control | dose: 200.0 mg/kg/injection, vehicle: DMSO 102 % of control

CN1CCN(c2ccc([N+](=O)[O-])c3no[n+]([O-])c23)CC1
inactive: dose: 5.0 mg/kg/injection, vehicle: saline with Tween-80 120 % of control | dose: 10.0 mg/kg/injection, vehicle: saline with Tween-80 111 % of control

COc1cccc2c1C(=O)c1c(O)c3c(c(O)c1C2=O)CC(O)(C(=O)CO)CC3OC1CC(N)C(O)C(C)O1 (stereo not given)
inactive: [2] 110 % of control | dose: 1.87 mg/kg/injection, vehicle: water 107 % of control | [3] 109 % of control | dose: 3.75 mg/kg/injection, vehicle: water 107 % of control | dose: 4.5 mg/kg/injection, vehicle: water 101 % of control | [4] 123 % of control | dose: 7.5 mg/kg/injection, vehicle: water 109 % of control | dose: 9.0 mg/kg/injection, vehicle: water 112 % of control | dose: 15.0 mg/kg/injection, vehicle: water 119 % of control | dose: 18.0 mg/kg/injection, vehicle: water 123 % of control | [5] 119 % of control | dose: 50.0 mg/kg/injection, vehicle: saline 90 % of control

NC(=O)c1[nH]nc(C2OC(CO)C(O)C2O)c1O (stereo not given)
inactive: dose: 0.31 mg/kg/injection, vehicle: saline 91 % of control and 105 % of control | dose: 0.62 mg/kg/injection, vehicle: saline 98 % of control and 101 % of control | dose: 1.25 mg/kg/injection, vehicle: saline 120 % of control and 122 % of control | dose: 2.5 mg/kg/injection, vehicle: saline 122 % of control

C[CH2][Sn]([CH2]C)([O]S(C)(=O)=O)[O]S(C)(=O)=O
inactive: dose: 0.09 mg/kg/injection, vehicle: saline 108 % of control | dose: 0.19 mg/kg/injection, vehicle: saline 97 % of control | dose: 0.39 mg/kg/injection, vehicle: saline 99 % of control | dose: 0.79 mg/kg/injection, vehicle: saline 109 % of control | [2] 93 % of control and 102 % of control | [3] 91 % of control and 87 % of control

NC(=O)CC(N)C(=O)O (stereo not given)
inactive: dose: 50.0 mg/kg/injection, vehicle: other 95 % of control | [6] 102 % of control | dose: 100.0 mg/kg/injection, vehicle: other 110 % of control | [7] 96 % of control | dose: 200.0 mg/kg/injection, vehicle: other 97 % of control | [8] 96 % of control | dose: 400.0 mg/kg/injection, vehicle: other 92 % of control | [9] 97 % of control | dose: 800.0 mg/kg/injection, vehicle: other 104 % of control | dose: 800.0 mg/kg/injection, vehicle: saline with Tween-80 100 % of control | dose: 1600.0 mg/kg/injection, vehicle: other 99 % of control | dose: 1600.0 mg/kg/injection, vehicle: saline with Tween-80 96 % of control

COc1cccc2c1C(=O)c1c(O)c3c(c(O)c1C2=O)C[C@@](O)(C(C)=O)C[C@@H]3OC1CC(N(Cc2ccccc2)Cc2ccccc2)C(O)C(C)O1 (stereo not given in full)
inactive: dose: 1.5 mg/kg/injection, vehicle: saline with Tween-80 104 % of control | dose: 1.5 mg/kg/injection, vehicle: water 96 % of control | dose: 1.56 mg/kg/injection, vehicle: saline with Tween-80 103 % of control | dose: 3.0 mg/kg/injection, vehicle: saline with Tween-80 112 % of control | dose: 3.0 mg/kg/injection, vehicle: water 99 % of control | dose: 3.12 mg/kg/injection, vehicle: saline with Tween-80 114 % of control | dose: 6.0 mg/kg/injection, vehicle: saline with Tween-80 113 % of control | dose: 6.25 mg/kg/injection, vehicle: saline with Tween-80 112 % of control and 116 % of control

CC(C)(C)c1ccc(CN2CCN(C(c3ccccc3)c3ccc(Cl)cc3)CC2)cc1 (stereo not given)
inactive: dose: 8.0 mg/kg/injection, vehicle: Klucel (hydroxypropylcellulose) (HPC) 117 % of control | dose: 16.0 mg/kg/injection, vehicle: Klucel (hydroxypropylcellulose) (HPC) 115 % of control | dose: 32.0 mg/kg/injection, vehicle: Klucel (hydroxypropylcellulose) (HPC) 105 % of control | dose: 64.0 mg/kg/injection, vehicle: Klucel (hydroxypropylcellulose) (HPC) 103 % of control

COCCCNC1=C(C#N)C(=O)NC(c2cccc([N+](=O)[O-])c2)S1 (stereo not given)
inactive: dose: 12.5 mg/kg/injection, vehicle: saline with Tween-80 111 % of control | dose: 25.0 mg/kg/injection, vehicle: saline with Tween-80 93 % of control | [6] 96 % of control | [7] 104 % of control | [8] 93 % of control | [9] 98 % of control

CSC(SC)=C1C(=O)NC(=O)NC1=O
inactive: [3] 103 % of control | [4] 105 % of control | dose: 12.5 mg/kg/injection, vehicle: saline 96 % of control | [5] 112 % of control
